Read-outs that look alike come from different tables or passages of the source.

Data set [1] in a line: Electrochemistry: metal-centered redox potential. In kind it is physicochemical. The conditions noted are these: for Redox Potential (E1/2): metal centered, pH 7.8 if not otherwise specified; for redox potential: text of Example VIII, unit not given. How it is done: Electrochemistry. The electrochemical characterization was performed as described previously on a Voltammetric Analyzer Model 600 (CH instrument) using a glassy carbon electrode (Ag/AgCl reference and Pt auxiliary electrodes), at 0.5 mM porphyrin, pH 7.8 (0.05 M phosphate buffer), 0.1 M NaCl. The potentials were standardized against potassium ferricyanide/potassium ferrocyanide couple (Batinic-Haberle et al, Arch. Biochem. Biophys. 343:225 (1997); Kolthof et al, J. Phys. Chem. 39:945 (1974)).
Electrochemistry. The metal-centered redox behavior of all metalloporphyrin products was reversible. The half-wave potentials (E^O1/2) were calculated as the average of the cathodic and anodic peaks and are given in mV vs NHE (Table 5). The average shift per chlorine is +55 mV (Table 5), which is in agreement with the values previously reported for H2TPP derivatives (between −50 and +70 mV) (Sen et al, Chem. Soc. Faraday Trans. 93:4281 (1997); Autret et al. J. Chem. Soc. Dalton Trans. 2793 (1996); Hariprasad et al, J. Chem. Soc. Dalton Trans. 3429 (1996); Tagliatesta et al, Inorg. Chem. 35:5570 (1996); Ghosh, J. Am. Chem. Soc. 117:4691 (1995); Takeuchi et al, J. Am. Chem. Soc. 116:9730 (1994); Binstead et al, Inorg. Chem. 30:1259 (1991); Giraudeau et al, J. Am. Chem. Soc. 101:3857 (1979)). This shift appears to be higher (˜+65 mV) between 0 and 1, and between 2 and 3 chlorines (Table 5). […] The manganese redox state of MnCl4TE-2-PyP^5 (E^O1/2=+448 mV) and MnOBTMPyP^4+ (E^O1.2=+480 mV) is 3+ and 2+, respectively. This difference may be explained by their difference in terms of redox potential (˜30 mV) but also by structural considerations, for instance an increased distortion of the porphyrin ring in the case of MnOBTMPyP^4+. (Batinic-Haberle et al, Arch. Biochem. Biophys. 343:225 (1997); Ochsenbein et al, Angew. Chem. Int. Ed. Engl. 33:348 (1994)).

Data set [2] has as its system SOD null E. coli (JI132). Put plainly: Aerobic growth of SOD null E. coli strain versus parental strain. In kind it is cell-based. Conditions: for aerobic growth (A700) of SOD null E. coli cells: 20 μM, glucose minimal medium (M9) plus 5 essential amino acids, JI132. How it is done: FIG. 3. SOD activity in vivo (E. coli) of 1, 2, 3* and 4* (20 μM) in minimal medium (mixture of atropoisomers, JI=SOD deficient strain, AB parental strain).
(§1) SOD activity can be monitored in the presence and absence of EDTA using the method of McCord and Fridovich (J. Biol. Chem. 244:6049 (1969)). The efficacy of a mimetic can also be determined by measuring the effect of the mimetic on the aerobic growth of a SOD null E. coli strain versus a parental strain lacking the specific mutations. Specifically, parental E. coli (AB1157) and SOD null E. coli. (JI132) can be grown in M9 medium containing 0.2% casamino acids and 0.2% glucose at pH 7.0 and 37° C.; growth can be monitored in terms of turbidity followed at 700 nm.
The activity in vivo of the mimetics of the invention can be tested on an E. coli strain deleted of the genes coding for both the MnSOD and FeSOD. In this assay, the efficacy of a mimetic is determined by measuring the effect of the mimetic on the aerobic growth of a SOD null E. coli strain versus a parental strain. Specifically, parental E. coli (AB1157) and SOD null E. coli. (JI132) are grown in M9 medium containing 0.2% casamino acids and 0.2% glucose at pH 7.0 and 37° C.; growth is monitored in terms of turbidity followed at 700 nm.

Data set [3] can be described thus: SOD-like activity in vitro (xanthine/xanthine oxidase, ferricytochrome c; McCord and Fridovich). In kind it is biochemical. The conditions noted are these: for rate of dismutation (kcat): Example VII. As for the experimental part: as §1
The superoxide dismutase activity of the mimetics of the invention depends on a number of factors, including thermodynamic factors (eg the metal-centered redox-potential see FIG. 1)), and kinetic factors (eg electrostatic facilitation).
Superoxide dismuting activity. The SOD-like activities were measured using the xanthine/xanthine oxidase system as a source of O2^− and ferricytochrome c as its indicating scavenger (McCord et al, J. Biol. Chem. 244:6049 (1969)). O2— was produced at the rate of 1.2 μM per minute and reduction of ferricytochrome c was followed at 550 nm. Assays were conducted in presence of 0.1 mM EDTA in 0.05 M phosphate buffer (pH 7.8). Rate constants for the reaction of the compounds were based upon competition with […] cytochrome c, kcyt c=2.6×10^5 M^−1s^−1 (Butler et al, J. Biol. Chem. 257:10747 (1982)). All measurements were done at 25° C. Cytochrome c concentration was at least 10^3-fold higher than the concentrations of the SOD mimics and the rates were linear for at least two minutes, during which the compounds intercepted ˜100 equivalents of O2^−, thus confirming the catalytic nature of O2^− dismutation in presence of the mimics.
Superoxide dismuting activities. SOD-like activities were measured as described previously, based on competition with cytochrome c (McCord et al, J. Biol. Chem. 244:6049 (1969)). MnClxTE-2-PyP^5+ SOD-like activities are reported in Table 5, IC50 (M) representing the concentration for one unit of activity (or the concentration that causes 50% inhibition of cytochrome c reduction by O2^−) and kcat (M^−1s^−1) representing the rate constant for the superoxide dismutation reaction. The SOD-like activity per mole of MnCl4TE-2-PyP^5 is approximately 2-, 7- and 100-fold higher than MnOBTMPyP^4+, MnTM-2-PyP^5+ and MnTM-4PyP^5+, respectively (Faulkner et al, J. Biol. Chem. 269:23471 (1994); Batinic-Haberle et al, Arch. Biochem. Biophys. 343:225 (1997); Batinic-Haberle et al, J. Biol. Chem. 273:24521 (1998)). The SOD-like activity of MnCl4TE-2-PyP^5+ represents 20% of the activity of the Cu,Zn-SOD enzyme on a molar basis (40% per active site considering that the enzyme has two active sites) (Klug-Roth et al, J. Am. Chem. Soc. 95:2786 (1973)).

For data set [4] the following is noted: vs NHE, literature comparators, cited from earlier work.
A short description of data set [5]: SOD activity in U/mg (reduction of cytochrome c or photoreduction of NBT). In kind it is biochemical. The conditions noted are these: for SOD: unit = amount that inhibits one half the reduction of cytochrome c or photoreduction of NBT.

For `CC[n+]1ccccc1-c1c2nc(c(-c3cccc[n+]3CC)c3ccc([n-]3)c(-c3cccc[n+]3CC)c3nc(c(-c4cccc[n+]4CC)c4ccc1[n-]4)C=C3)C=C2.[Mn+3]` [MnTE-2-PyP^5+, manganic meso-tetrakis-(N-ethylpyridinium-2-yl)porphyrin], the “E°1/2 half-wave potential” value in data set [1] (vs NHE, 0.5 mM porphyrin, 0.1 M NaCl, 0.05 M phosphate buffer (pH 7.8)) was “+228 mV”. Moreover, in data set [2], the “aerobic growth (A700) of SOD null E. coli cells” value (from here on “aerobic growth (A700)”) is on record as “increase in A700”. Further, the “kcat rate constant for the superoxide dismutation reaction” value in data set [3] (0.1 mM EDTA, 0.05 M phosphate buffer pH 7.8, 25° C.) is 5.7 10^7 M^−1 s^−1. Besides, in data set [3] (0.1 mM EDTA, 0.05 M phosphate buffer pH 7.8, 25° C., read-out: IC50 concentration that causes 50% inhibition of cytochrome c reduction by O2^−), the IC50 worked out at 45 nM.

On to “manganese(III) 5,10,15,20-tetrakis(N-methylpyridyl)porphyrin [MnTM-4-PyP^5+, reference compound]”, for which the “E°1/2 half-wave potential of comparison compounds” value in data set [4] was “+60 mV”; in data set [4] (listed as MnTM-4-PyP^5−) it was “+060 mV”. Besides, in data set [1] (vs NHE), the “Redox Potential (E1/2)” value is listed as “+0.06 V”. For the same molecule, the redox potential result in data set [1] was “+0.06”. In addition, the “E1/2 one-electron metal-centered redox-potential” value in data set [1] (vs NHE, listed as 1) is “+0.060 V”. Also, the “half-wave potential (E1/2)” value in data set [1] (vs normal hydrogen electrode (NHE), Example VII) was “+0.060 V”. In addition, in data set [2] (listed as 1), the “aerobic growth (A700)” value was “did not show an increase in A700”. Besides, the “growth of SOD-deficient Escherichia coli” value in data set [2] (Example VII) is given as “inhibited growth”. In data set [5], this molecule returned an SOD of 547 U/mg. Further, the “rate of dismutation (kcat)” value in data set [3] came to 3.8e+06 M⁻¹ s⁻¹.

On to “manganese(III) 5,10,15,20-tetrakis(N-methylpyridyl)porphyrin [MnTM-2-PyP^5+]”, for which the “E°1/2 half-wave potential of comparison compounds” value in data set [4] (listed as MnTM-2-PyP^3−) was “+220 mV”. Besides, the “Redox Potential (E1/2)” value in data set [1] (vs NHE) is given as “+0.22 V”. Moreover, the redox potential entry in data set [1] is recorded as “+0.22”. For the same molecule, the “aerobic growth (A700)” value in data set [2] (listed as 3) is given as “increase in A700”. In addition, in data set [2] (FIG. 3), the “toxicity in vivo (E. coli)” value is listed as “decreased toxicity”. The “difference in SOD activity, ortho vs para” value in data set [5] (MnTM-2-PyP vs MnTM-4-PyP) was “factor of six”. Also, in data set [5], the SOD is reported as 8,500 U/mg. Moreover, in data set [3], the “rate of dismutation (kcat)” value came out at 6e+07 M⁻¹ s⁻¹. In addition, the “SOD activity in vitro relative to the para compound 1” value in data set [3] (in vitro enzymatic assay) was “more than an order of magnitude more active”.
